Tests used:
mice = test: Growth plate cartilage structure in mice, Safranin O staining; assay type: in vivo; conditions: subcutaneous injection from 2 weeks old
Experimental: From 2 weeks old, mice are administered GPER-1 agonists at concentrations of 10^−8 g/kg, 10^−6 g/kg, and 10^−4 g/kg through subcutaneous injection to activate GPER-1. Safranin O staining is employed to label cartilage tissue for the analysis of growth plate cartilage structure. The growth plate cartilage is categorized into the resting zone (RZ), proliferation zone (PZ), and hypertrophy zone (HZ).

epiphyseal chondrocytes = test: BrdU proliferation in ex vivo cultured epiphyseal cartilage of 4-day-old rats; assay type: cell-based; conditions: for proliferation of epiphyseal chondrocytes (BrdU): ex vivo rat epiphyseal cartilage
Experimental: After taking out the cultured epiphyseal cartilage from 4-day-old rats and culturing them ex vivo, the cartilage tissues are given GPER-1 agonists at concentrations of 0.1, 0.5, 1, and 2 μM to activate the GPER-1 of chondrocytes. Subsequently, the amount of proliferating cells in living cells is detected using Bromodeoxyuridine (5-bromo-2′-deoxyuridine, BrdU).

CC(=O)c1ccc2c(c1)[C@H]1C=CC[C@H]1[C@@H](c1cc3c(cc1Br)OCO3)N2 (racemic) [GPER-1 agonist, (±)-1-[(3aR*,4S*,9bS*)-4-(6-Bromo-1,3-benzodioxol-5-yl)-3a,4,5,9b-tetrahydro-3H-cyclopenta[c]quinolin-8-yl]-ethenone]
thickness of the proliferative zone of the growth plate (mice; 10^−4 g/kg): effectively promote
thickness of the whole growth plate (mice; 10^−4 g/kg): effectively promote
thickness of the proliferative zone of the growth plate (mice; 10^−6 g/kg): effectively promote
thickness of the whole growth plate (mice; 10^−6 g/kg): effectively promote
proliferation of rat chondrocytes (epiphyseal chondrocytes; concentrations ranging from 0.1 to 1 μM (summary statement)): can promote
proliferation of epiphyseal chondrocytes (BrdU) (epiphyseal chondrocytes; 0.1 μM): significantly promote
proliferation of epiphyseal chondrocytes (BrdU) (epiphyseal chondrocytes; 0.5 μM): significantly promote

— US20250295649A1, “METHOD FOR PROMOTING ELONGATION OF LONG BONE DURING CHILDHOOD TO ADOLESCENCE BY GPER-1 ACTIVATION VARIANT” (Kaohsiung Medical University, priority 2024, published 2025)
